The subject of this test is tetrabenazine-induced hypothermia. As to the kind of experiment: In vivo tetrabenazine-induced hypothermia test. The settings on record: oral gavage 60 minutes before TBZ i.p.; ICR male mice. As to the method:
FIG. 1 depicts in vivo tetrabenazine-induced hypothermia test. Imipramine (positive control), PDC-1421, 1st Fraction 10-19, 1st Fraction 33, 2nd Fraction-1 (the major components are polygalatenosides A/B/C), 2nd Fraction-3, TMCA, Polygalaxanthone III, Onjisaponin B, Sibiricose A5, 7-O-Methylmangiferin and Sibiricaxanthone B are administered as test substances and the temperature recovery (%) is documented as shown in figure. The around 70% of PDC-1421 in Example 1 are composed of sucroester (34%), saponin (18%) and xanthone (17%). Some active compounds of powder product in Example 1, polygalatenosides A/B/C (2nd fraction 1), ploygalaxanthone III, sibiricoses A5, and 7-O-methylmangiferin are also discovered through in vivo tetrabenazine-induced hypothermia test (one of rodent models for evaluating antidepressant-like activity in mice). Imipramine (positive control), PDC-1421, 1st Fraction 10-19, 1st Fraction 33, 2nd Fraction-1 (the major components are polygalatenosides A/B/C), 2nd Fraction-3, TMCA, Polygalaxanthone III, Onjisaponin B, Sibiricose A5, 7-O-Methylmangiferin and Sibiricaxanthone B were dissolved in water for injection (WFI) and administered by oral gavage. The dosing volume was 10 mL/kg. Test substances and vehicle (WFI) were administered by oral gavage to groups of 8 ICR male mice weighing 23±3 g 60 minutes before intraperitoneal injection of tetrabenazine (TBZ, 85 ma/kg). Body temperature was recorded before (0 min), and 60, 90 and 120 min after TBZ challenge.

On to `COc1cc2c(=O)c3c(O)c([C@@H]4O[C@H](CO)[C@@H](O)[C@H](O)[C@H]4O)c(O)cc3oc2cc1O` [7-O-methylmangiferin], for which the “activity in tetrabenazine-induced hypothermia test (temperature recovery)” value (“activity” for short) is “active”.
For the molecule `COc1cc2c(=O)c3c(O)c([C@@H]4O[C@H](CO[C@@H]5OC[C@](O)(CO)[C@H]5O)[C@@H](O)[C@H](O)[C@H]4O)c(O)cc3oc2cc1O` [ploygalaxanthone III], the “activity” value was “active”.
Consider `COc1cc(/C=C/C(=O)O[C@H]2[C@H](O)[C@@H](CO)O[C@@]2(CO)O[C@H]2O[C@H](CO)[C@@H](O)[C@H](O)[C@H]2O)ccc1O` [sibiricoses A5], for which the “activity” value is given as “active”.

The values are drawn from US11554154B2, “Polygala extract for the treatment of major depressive disorder” (priority 2020, dated 2023).
